This test deals with T1, GST-tagged ROR gamma ligand binding domain (LBD) (Homo sapiens, UniProt P51449).
T1 construct: purchased Invitrogen
T1 sequence (P51449 269-508 limits assumed): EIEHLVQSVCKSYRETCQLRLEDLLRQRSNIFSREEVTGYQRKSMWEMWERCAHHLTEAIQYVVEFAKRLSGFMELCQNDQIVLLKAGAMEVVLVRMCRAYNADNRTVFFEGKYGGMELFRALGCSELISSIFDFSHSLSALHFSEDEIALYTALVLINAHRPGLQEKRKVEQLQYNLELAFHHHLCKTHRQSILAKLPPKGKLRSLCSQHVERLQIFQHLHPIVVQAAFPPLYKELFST
Put plainly: TR-FRET assay for ROR gamma (LanthaScreen, Fluorescein-D22 co-activator peptide recruitment). The test is classed as biochemical. As to conditions: for inhibition at 1 µM: 1 μM compound; for inhibition at 1 µM / inhibition at 10 µM: TR-FRET ratio 520/495; for inhibition at 10 µM: 10 μM compound; for IC50: dose response curve, class symbols. From the text: The compounds described herein were screened for ROR gamma modulator activity using the TR-FRET assay (LanthaScreen™ available from Invitrogen of Carlsbad, Calif.) as described in JBC 2011, 286, 26: 22707-10; and Drug Metabolism and Disposition 2009, 37, 10: 2069-78.
The assay is based on the principle that binding of the agonist to the ROR gamma causes a conformational change around helix 12 in the ligand binding domain, resulting in higher affinity for the co-activator peptide. ROR gamma being constitutively active, the Fluorescein-D22 co-activator peptide used in the assay is recruited in the absence of a ligand. Binding of the co-activator peptide, causes an increase in the TR-FRET signal while binding of an antagonist decreases the recruitment of the co-activator peptide, causing a decrease in the TR-FRET signal compared to control with no compound. The assay was performed using a two-step procedure, pre-incubation step with the compound followed by the detection step on addition of the anti-GST tagged terbium (Tb) and fluorescein tagged fluorophores as the acceptor.
Test compounds or reference compounds such as T0901317 (Calbiochem) were dissolved in dimethylsulfoxide (DMSO) to prepare 10.0 mM stock solutions and diluted to the desired concentration. The final concentration of DMSO in the reaction was 4% (v/v). The assay mixture was prepared by mixing 10 nM of the GST-tagged ROR gamma ligand binding domain (LBD) in the assay buffer containing 25 mM HEPES, 100 mM NaCl, 5 mM DTT and 0.01% BSA with or without the desired concentration of the compound. The reaction was incubated at 22° C. for 1 hour. The pre-incubation step was terminated by addition of the detection mixture containing 300 nM Fluorescein-D22 co-activator peptide and 10 nM lantha screen Tb-anti GST antibody into the reaction mixture. After shaking for 5 minutes the reaction was further incubated for 1 hour at room temperature and read […] on an Infinite F500 reader as per the kit instructions (Invitrogen). The inhibition of test compound was calculated based on the TR-FRET ratio of 520/495. The activity was calculated as a percent of control reaction. IC50 values were calculated from dose response curve by nonlinear regression analysis using GraphPad Prism software.
Percentage inhibition at concentrations of 1.0 μM and 10.0 μM are given in the table along with IC50 (nM) details for selected examples.

Where only a bound is given, the exact number is not on record here.

Consider `CCOC(=O)C(F)(F)c1ccc(CC(=O)Nc2ccc(C(=O)N(C)c3ccc(Cl)cc3)cc2)cc1` [Example 1, Ethyl 2-(4-(2-((4-((4-chlorophenyl)(methyl)carbamoyl)phenyl)amino)-2-oxoethyl)phenyl)-2,2-difluoroacetate], for which the inhibition (in general, the percentage by which the read-out fell short of the control) at 1 µM is 27.6% and the inhibition at 10 µM stood at 64.5%.

For the compound `CN(C(=O)c1ccc(NC(=O)Cc2ccc(C(F)(F)C(N)=O)cc2)cc1)c1ccc(Cl)cc1` [Example 2, 4-(2-(4-(2-amino-1,1-difluoro-2-oxoethyl)phenyl)acetamido)-N-(4-chlorophenyl)-N-methylbenzamide], the inhibition at 1 µM is 20.7% and the inhibition at 10 µM came to 43.4%.

Turning to `CN(C(=O)c1ccc(NC(=O)Cc2ccc(C(F)(F)CO)cc2)cc1)c1ccc(Cl)cc1` [Example 3, N-(4-chlorophenyl)-4-(2-(4-(1,1-difluoro-2-hydroxyethyl)phenyl)acetamido)-N-methylbenzamide], the inhibition at 1 µM is 75%; the inhibition at 10 µM worked out at 85.8%; the IC50 (as a rule, the point on the concentration scale where inhibition reaches its midpoint) was above 100 nM.

In the case of `CCC(F)(F)c1ccc(CC(=O)Nc2ccc(C(=O)N(C)c3cc(Cl)ccc3Cl)cc2)cc1` [Example 4], the inhibition at 1 µM worked out at 88.5%, the inhibition at 10 µM came to 91.1% and the IC50 is below 50 nM.

Take `CC(O)C(F)(F)c1ccc(CC(=O)Nc2ccc(C(=O)N(C)c3cc(Cl)ccc3Cl)cc2)cc1` (stereo not drawn) [Example 5, N-(2,5-Dichlorophenyl)-4-(2-(4-(1,1-difluoro-2-hydroxypropyl)phenyl)acetamido)-N-methylbenzamide]: the inhibition at 1 µM worked out at 87.6%, the inhibition at 10 µM stood at 94.3% and the IC50 is below 50 nM.

Regarding `CCC(F)(F)c1ccc(CC(=O)Nc2ccc(C(=O)N(C)c3ccccc3Cl)cc2)cc1` [Example 6], the inhibition at 1 µM was found to be 90.9%, the inhibition at 10 µM stood at 91.2% and the IC50 was below 50 nM.

`Cc1cc(C)cc(N(C)C(=O)c2ccc(NC(=O)Cc3ccc(C(F)(F)CO)cc3)cc2)c1` [Example 7]: the inhibition at 1 µM came out at 87.5%, the inhibition at 10 µM was 95.1% and the half-maximal inhibitory concentration (IC50) was below 50 nM.

On to `Cc1cc(C)cc(N(C)C(=O)c2ccc(NC(=O)Cc3ccc(C(F)(F)C(C)O)cc3)cc2)c1` (stereo not drawn) [Example 8], for which the inhibition at 1 µM came out at 94.8%, the inhibition at 10 µM was found to be 96.5% and the IC50 was below 50 nM.

For `Cc1cc(C)cc(N(C)C(=O)c2ccc(NC(=O)Cc3ccc(C(F)(F)C(C)(C)O)cc3)cc2)c1` [Example 9, 4-(2-(4-(1,1-difluoro-2-hydroxy-2-methylpropyl)phenyl)acetamido)-N-(3,5-dimethylphenyl)-N-methylbenzamide], the inhibition at 1 µM came to 86.2%, the inhibition at 10 µM is 97% and the IC50 was above 100 nM.

`COCC(F)(F)c1ccc(CC(=O)Nc2ccc(C(=O)N(C)c3cc(C)cc(C)c3)cc2)cc1` [Example 10]: the inhibition at 1 µM turned out to be 93.2%, the inhibition at 10 µM stood at 95.3% and the IC50 was below 50 nM.

Take `CCC(F)(F)c1ccc(CC(=O)Nc2ccc(C(=O)N(C)c3cc(C)cc(C)c3)cc2)cc1` [Example 11]: the inhibition at 1 µM is 90.1%, the inhibition at 10 µM worked out at 92.9% and the IC50 was below 50 nM.

Regarding `Cc1cc(-c2ccccc2F)cc(N(C)C(=O)c2ccc(NC(=O)Cc3ccc(C(F)(F)C(C)O)cc3)cc2)c1` (stereo not drawn) [Example 12], the inhibition at 1 µM worked out at 89.4%, the inhibition at 10 µM worked out at 93.7% and the IC50 lay in the range of 50 to 100 nM.

Take `CCC(F)(F)c1ccc(CC(=O)Nc2ccc(C(=O)N(C)c3cc(C)cc(-c4ccccc4F)c3)cc2)cc1` [Example 13]: the inhibition at 1 µM stood at 87.5%, the inhibition at 10 µM is 90.6% and the IC50 was in the range of 50 to 100 nM.

For `CCC(F)(F)c1ccc(CC(=O)Nc2ccc(C(=O)N(CC(F)(F)F)c3cccc(Cl)c3)cc2)cc1` [Example 14], the inhibition at 1 µM turned out to be 84%, the inhibition at 10 µM turned out to be 87.6% and the IC50 was below 50 nM.

As for `CC(O)C(F)(F)c1ccc(CC(=O)Nc2ccc(C(=O)N(C)c3ccccc3Cl)cc2)cc1` (stereo not drawn) [Example 15], the inhibition at 1 µM came out at 85.5%, the inhibition at 10 µM came out at 92.8% and the IC50 was below 50 nM.

`COCC(F)(F)c1ccc(CC(=O)Nc2ccc(C(=O)N(C)[C@H](C)c3ccc(Cl)cc3)cc2)cc1` [Example 16]: the inhibition at 1 µM stood at 84.5%, the inhibition at 10 µM turned out to be 93.7% and the concentration for half-maximal inhibition (IC50) is above 100 nM.

`CCC(F)(F)c1ccc(CC(=O)Nc2ccc(C(=O)N(C)[C@H](C)c3ccc(Cl)cc3)cc2)cc1` [Example 17]: the inhibition at 1 µM stood at 87.1%, the inhibition at 10 µM was determined as 90.8% and the half-inhibitory concentration (IC50) is below 50 nM.

In the case of `CCC(F)(F)c1ccc(CC(=O)Nc2ccc(C(=O)N(C)[C@@H](c3ccc(Cl)cc3)C3CC3)cc2)cc1` [Example 18], the inhibition at 1 µM turned out to be 87.4%, the inhibition at 10 µM is 90% and the half-maximal inhibitory concentration (IC50) was below 50 nM.

As to `CC(O)C(F)(F)c1ccc(CC(=O)Nc2ccc(C(=O)N(C)[C@@H](c3ccc(Cl)cc3)C3CC3)cc2)cc1` (stereo partly drawn) [Example 19], the inhibition at 1 µM came to 82.6%, the inhibition at 10 µM turned out to be 92.8% and the 50% inhibitory concentration (IC50) lay in the range of 50 to 100 nM.

Consider `CCC(F)(F)c1ccc(CC(=O)Nc2ccc(C(=O)N(C)[C@@H](C)c3ccc(Cl)cc3)cc2)cc1` [Example 20], for which the inhibition at 1 µM worked out at 61.5% and the inhibition at 10 µM amounted to 75%.

For the compound `CC(O)C(F)(F)c1ccc(CC(=O)Nc2ccc(C(=O)N(C)c3cc(Cl)cc(Cl)c3)cc2)cc1` (stereo not drawn) [Example 21, N-(3,5-dichlorophenyl)-4-(2-(4-(1,1-difluoro-2-hydroxypropyl)phenyl)acetamido)-N-methylbenzamide], the inhibition at 1 µM is 82.2%, the inhibition at 10 µM stood at 87.9% and the IC50 is below 50 nM.

With `Cc1ccc(N(C)C(=O)c2ccc(NC(=O)Cc3ccc(C(F)(F)C(C)O)cc3)cc2)c(Cl)c1` (stereo not drawn) [Example 23], the inhibition at 1 µM came out at 88.8%, the inhibition at 10 µM was determined as 93.2% and the 50% inhibitory concentration (IC50) was below 50 nM.

For `Cc1cc(Cl)ccc1N(C)C(=O)c1ccc(NC(=O)Cc2ccc(C(F)(F)C(C)O)cc2)cc1` (stereo not drawn) [Example 24], the inhibition at 1 µM turned out to be 82.6%, the inhibition at 10 µM was 88.7% and the IC50 was below 50 nM.

On to `CC(O)C(F)(F)c1ccc(CC(=O)Nc2ccc(C(=O)N(C)c3ccc(Cl)cc3Cl)cc2)cc1` (stereo not drawn) [Example 25], for which the inhibition at 1 µM was determined as 82%, the inhibition at 10 µM was 90% and the IC50 was below 50 nM.

For `CC(O)C(F)(F)c1ccc(CC(=O)Nc2ccc(C(=O)N(C)c3cccc(Cl)c3F)cc2)cc1` (stereo not drawn) [Example 26], the inhibition at 1 µM is 86.4%, the inhibition at 10 µM stood at 93.2% and the half-inhibitory concentration (IC50) is below 50 nM.

Turning to `Cc1ccc(Cl)c(N(C)C(=O)c2ccc(NC(=O)Cc3ccc(C(F)(F)C(C)O)cc3)cc2)c1` (stereo not drawn) [Example 27], the inhibition at 1 µM worked out at 90.1%, the inhibition at 10 µM was 92% and the IC50 was below 50 nM.

For `Cc1ccc(F)c(N(C)C(=O)c2ccc(NC(=O)Cc3ccc(C(F)(F)C(C)O)cc3)cc2)c1` (stereo not drawn) [Example 28], the inhibition at 1 µM turned out to be 90.5%, the inhibition at 10 µM was 93.9% and the half-maximal inhibitory concentration (IC50) is below 50 nM.

On to `Cc1ccc(N(C)C(=O)c2ccc(NC(=O)Cc3ccc(C(F)(F)[C@@H](C)O)cc3)cc2)c(Cl)c1` [Example 29, (R)—N-(2-Chloro-4-methylphenyl)-4-(2-(4-(1,1-difluoro-2-hydroxypropyl)phenyl)acetamido)-N-methylbenzamide], for which the inhibition at 1 µM is 80.7%, the inhibition at 10 µM stood at 87.1% and the IC50 is below 50 nM.

With `Cc1ccc(N(C)C(=O)c2ccc(NC(=O)Cc3ccc(C(F)(F)[C@H](C)O)cc3)cc2)c(Cl)c1` [Example 30, (S)—N-(2-Chloro-4-methylphenyl)-4-(2-(4-(1,1-difluoro-2-hydroxypropyl)phenyl)acetamido)-N-methylbenzamide], the inhibition at 1 µM worked out at 85.5%, the inhibition at 10 µM came out at 88.7% and the IC50 was below 50 nM.
